Patent publication US7767696B2, “Pyrazole derivatives” (Merck Patent GmbH, priority 2005, dated 2010)
pIC50: −log10 of the molar value.

Experiments:
VEGFR (KDR) = target: T1, VEGFR (KDR) (Homo sapiens, UniProt P35968); experiment: VEGF receptor kinase assay (33P incorporation into pEY substrate); type: biochemical; conditions: read-out: Kinase-Inhibiting Activities IC50 VEGFR
T1 construct: cloning the cytoplasmic domain of the KDR kinase as an in frame fusion at the carboxyl terminus of the GST gene; made in house; host or cells: Spodoptera frugiperda (Sf21) insect cells, baculovirus vector pAcG2T
T1 sequence (P35968 786-1356 limits assumed): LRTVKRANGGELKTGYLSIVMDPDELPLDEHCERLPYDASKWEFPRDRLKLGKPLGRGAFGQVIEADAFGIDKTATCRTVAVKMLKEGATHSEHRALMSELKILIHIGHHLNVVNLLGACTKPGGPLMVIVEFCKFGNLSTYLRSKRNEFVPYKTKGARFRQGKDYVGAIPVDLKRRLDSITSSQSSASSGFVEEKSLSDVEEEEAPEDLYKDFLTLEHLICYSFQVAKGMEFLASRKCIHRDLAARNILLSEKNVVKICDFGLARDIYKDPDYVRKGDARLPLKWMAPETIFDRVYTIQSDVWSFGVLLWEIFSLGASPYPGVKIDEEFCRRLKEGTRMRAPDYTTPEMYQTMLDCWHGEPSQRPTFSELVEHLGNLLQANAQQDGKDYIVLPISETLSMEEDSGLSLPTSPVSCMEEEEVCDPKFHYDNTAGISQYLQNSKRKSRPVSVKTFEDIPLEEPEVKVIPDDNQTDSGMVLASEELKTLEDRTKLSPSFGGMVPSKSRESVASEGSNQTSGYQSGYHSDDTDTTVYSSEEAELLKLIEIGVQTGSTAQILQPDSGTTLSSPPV
Procedure: VEGF receptor kinase activity is measured by incorporation of radiolabelled phosphate into 4:1 polyglutamic acid/tyrosine substrate (pEY). The phosphorylated pEY product is trapped on a filter membrane and the incorporation of radiolabelled phosphate is quantified by scintillation counting.
The intracellular tyrosine kinase domains of human KDR (Terman, B. I. et al. Oncogene (1991) Vol. 6, pp. 1677-1683.) and Flt-1 (Shibuya, M. et al. Oncogene (1990) Vol. 5, pp. 519-524) were cloned as glutathione S-transferase (GST) gene fusion proteins. This was accomplished by cloning the cytoplasmic domain of the KDR kinase as an in frame fusion at the carboxyl terminus of the GST gene. Soluble recombinant GST-kinase domain fusion proteins were expressed in Spodoptera frugiperda (Sf21) insect cells (Invitrogen) using a baculovirus expression vector (pAcG2T, Pharmingen).
Method B—VEGF Receptor Kinase Assay
1. Add 5 μl of inhibitor or control to the assay in 50% DMSO.
2. Add 35 μl of reaction mixture containing 5 μl of 10× reaction buffer, 5 μl of 25 mM ATP/10 μCi[^33P]ATP (Amersham) and 5 μl of 10× substrate.
3. Start the reaction by the addition of 10 μl of KDR (25 nM) in enzyme dilution buffer.
4. Mix and incubate at room temperature for 15 minutes.
5. Stop the reaction by the addition of 50 μl of stop solution.
6. Incubate at 4° C. for 15 minutes.
7. Transfer a 90 μl aliquot to filter plate.
8. Aspirate and wash 3 times with wash solution.
9. Add 30 μl of scintillation cocktail, seal plate and count in a Wallace Microbeta scintillation counter.

TIE-2 = TIE-2 (Homo sapiens, UniProt Q02763); experiment: TIE-2 kinase flashplate assay (phosphorylation of poly(Glu, Tyr) with 33P-ATP); type: biochemical; conditions: read-out: Kinase-Inhibiting Activities IC50 TIE-2
TIE-2, sequence (Q02763 23-1124, species assumed): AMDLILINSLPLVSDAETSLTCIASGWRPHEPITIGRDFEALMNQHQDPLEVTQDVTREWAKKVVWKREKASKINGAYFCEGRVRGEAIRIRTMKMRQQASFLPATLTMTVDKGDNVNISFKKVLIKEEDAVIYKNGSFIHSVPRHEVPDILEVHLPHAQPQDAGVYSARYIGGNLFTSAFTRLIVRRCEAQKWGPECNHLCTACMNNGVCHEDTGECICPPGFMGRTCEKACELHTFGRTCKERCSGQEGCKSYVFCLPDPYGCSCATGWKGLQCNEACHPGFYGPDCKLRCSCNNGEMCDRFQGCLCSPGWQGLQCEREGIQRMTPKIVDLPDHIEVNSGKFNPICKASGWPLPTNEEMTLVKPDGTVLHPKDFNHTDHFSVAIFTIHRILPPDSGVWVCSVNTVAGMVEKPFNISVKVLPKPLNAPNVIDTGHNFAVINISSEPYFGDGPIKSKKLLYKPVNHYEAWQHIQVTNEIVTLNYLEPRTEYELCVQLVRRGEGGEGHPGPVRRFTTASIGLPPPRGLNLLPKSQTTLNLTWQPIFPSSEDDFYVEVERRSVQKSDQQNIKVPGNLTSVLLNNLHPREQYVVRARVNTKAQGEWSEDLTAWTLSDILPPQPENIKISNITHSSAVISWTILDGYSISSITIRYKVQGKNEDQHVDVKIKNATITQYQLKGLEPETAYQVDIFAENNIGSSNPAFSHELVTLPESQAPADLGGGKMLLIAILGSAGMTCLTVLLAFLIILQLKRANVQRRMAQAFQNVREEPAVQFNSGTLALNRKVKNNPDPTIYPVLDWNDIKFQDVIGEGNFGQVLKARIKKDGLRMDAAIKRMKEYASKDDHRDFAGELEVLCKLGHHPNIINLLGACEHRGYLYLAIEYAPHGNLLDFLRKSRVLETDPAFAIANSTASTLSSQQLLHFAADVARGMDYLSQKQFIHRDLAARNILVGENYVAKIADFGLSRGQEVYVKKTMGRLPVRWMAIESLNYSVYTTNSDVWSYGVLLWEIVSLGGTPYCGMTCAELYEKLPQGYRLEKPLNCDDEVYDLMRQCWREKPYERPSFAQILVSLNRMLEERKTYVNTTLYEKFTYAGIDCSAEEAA
Procedure: The TIE-2 tests can be carried out, for example, analogously to the methods indicated in WO 02/44156.
The assay determines the inhibiting activity of the substances to be tested in the phosphorylation of the substrate poly(Glu, Tyr) by Tie-2 kinase in the presence of radioactive ^33P-ATP. The phosphorylated substrate binds to the surface of a “flashplate” microtitre plate during the incubation time. After removal of the reaction mixture, the microtitre plate is washed a number of times and the radioactivity on its surface is subsequently measured. An inhibiting effect of the substances to be measured results in lower radioactivity compared with an undisturbed enzymatic reaction.

SMILES: CNC(=O)c1cc(Oc2ccc(NC(=O)Nc3cc(-c4ccco4)nn3-c3ccc(F)cc3)cc2)ccn1 [Compound 3, 1-[4-(2-Methylaminocarbonylpyridin-4-yloxy)phenyl]-3-[5-(furan-2-yl)-2-(4-fluorophenyl)-2H-pyrazol-3-yl]urea]
- pIC50 (VEGFR (KDR)): 7.13
- pIC50 (TIE-2): 8.01

SMILES: CNC(=O)c1cc(Oc2ccc(NC(=O)Nc3cc(C(C)(C)C)nn3-c3cccc(C(F)(F)F)c3)cc2)ccn1 [Compound 11, 1-[4-(2-Methylaminocarbonylpyridin-4-yloxy)phenyl]-3-[5-tert-butyl-2-(3-trifluoromethylphenyl)-2H-pyrazol-3-yl]urea]
- pIC50 (VEGFR (KDR)): 6.87
- pIC50 (TIE-2): 8.49

SMILES: CNC(=O)c1cc(Oc2ccc(NC(=O)Nc3cc(-c4ccco4)nn3-c3ccc(C)cc3)cc2)ccn1 [Compound 2, 1-[4-(2-methylaminocarbonylpyridin-4-yloxy)phenyl]-3-[5-(furan-2-yl)-2-(p-tolyl)-2H-pyrazol-3-yl]urea]
- pIC50 (VEGFR (KDR)): 7.47
- pIC50 (TIE-2): 8.37

SMILES: CNC(=O)c1cc(Oc2ccc(NC(=O)Nc3cc(C(C)(C)C)nn3-c3ccc(C)cc3)cc2)ccn1 [Compound 8, 1-[4-(2-Methylaminocarbonylpyridin-4-yloxy)phenyl]-3-[5-tert-butyl-2-(p-tolyl)-2H-pyrazol-3-yl]urea]
- pIC50 (VEGFR (KDR)): 7.24
- pIC50 (TIE-2): 8.14

SMILES: CNC(=O)c1cc(Oc2ccc(NC(=O)Nc3cc(C(C)(C)C)nn3-c3ccc(F)cc3)cc2)ccn1 [Compound 1, 1-[4-(2-methylaminocarbonylpyridin-4-yloxy)phenyl]-3-[5-tert-butyl-2-(4-fluorophenyl)-2H-pyrazol-3-yl]urea]
- pIC50 (VEGFR (KDR)): 6.96
- pIC50 (TIE-2): 8.19
